Source: patent US20060035317A1, “Effect of treatment with 4,5-dihydroxy-2-cyclopenten-1-one (dhcp) on gene expression and quorum-sensing in bacteria” (priority 2002, published 2006)

Tested on: E. coli wild-type strain JM83 (gene expression)
Experiment: Primer extension analysis of mRNA levels in DHCP-treated vs control cells
Assay type: cell-based
Details: DHCP 250 μM, 8 h
Method: FIG. 1 are gels showing the effect of DHCP on the levels of mRNAs. Total RNA was extracted by the hot phenol method as described in the Materials and Methods section of Example 1, and primer extension analysis was carried out with oligonucleotides corresponding to osmY, dps, rpoS, katG, cysK, tehA, zipA, and ompF. Lanes 1 and 2 in each case represent mRNAs isolated from control (untreated) and DHCP treated cells, respectively.
E. coli wild-type strain JM83 [F^− araΔ(lac-proAB) rpsL(str^r)] (Yanisch-Perron et al., 1985) was grown in Luria broth (LB). V. harveyi strains BB152 and BB170 were a gift from Dr. Bonnie Bassler (Princeton University). These strains were grown in AB medium as described previously (Surette et al., 1999).
E. coli cells grown overnight in LB medium were diluted into fresh LB medium. After the growth reached a Klett unit of 50, DHCP was added (250 μM) and growth was further monitored. After growth reached a Klett unit of 90-100, it was diluted 10-fold into a medium containing the same concentration of DHCP as described previously (Phadtare et al., 2001). The cells were harvested after a total of 8 h of incubation with DHCP. […] The total RNA was extracted by the hot phenol method described previously (Sarmientos et al., 1983). It was further purified by RNeasy Minikit (Qiagen) and was then treated with DNase I followed by phenol-chloroform treatment and ethanol precipitation. It was quantified by measuring absorbance at 260 nm. The purity of RNA was confirmed by agarose gel electrophoresis.
The primers used for detection of the respective mRNAs were: Primer 750077, 5′-[…]-3′ (SEQ ID NO:1), that corresponds to the sequence from the 15th to the 8th codon of osmY (Yim et al., 1992); primer 750078, 5′-[…]-3′ (SEQ ID NO:2), that corresponds to the sequence from the 16th to the 9th codon of dps (Altuvia et al., 1994); Primer 979747, 5′-[…]-3′ (SEQ ID NO:3), that corresponds to the region from the 6th codon of rpoS (Takayanagi et al., 1994); primer 956660, 5′-AGT […]-3′ (SEQ ID NO:4), that corresponds to the region from 13th to the 6th codon of katG (Triggs-Raine et al., 1998); primer 3969805, 5′-[…]-3′ (SEQ ID NO:5), that corresponds to the region from 20th to the 13th codon of cysK (Byrne et al., 1988); primer 3969806, 5′-[…]-3′ (SEQ ID NO:6), that corresponds to the region from 13th to the 6th codoh of tehA (Walter et al., 1991); primer 3969807, 5′[…]-3′ (SEQ ID NO:7), that corresponds to the region from 10th to the 3rd codon of zipA (Hale et al., 1997); and primer 7018 5′-[…]-3′ (SEQ ID NO:8), that includes the region encompassing from the first codon of ompF (accession numbers, J01655, M10311 and M10312). The primers were labeled with [γ-^32P] ATP (Du-Pont-New England Nuclear] by using T4 polynucleotide kinase (Gibco BRL). Primer extension was carried out with 5 μg of RNA at 42° C. for 1 h in a final reaction volume of 10 μl, with 50 mM Tris-HCl (pH 8.5), 8 mM MgCl2, 30 mM KCl, 1 mM dithiothreitol, 0.4 pmol of ^32P-labeled primer, 0.5 mM each of the dNTPs, 10 U RNase inhibitor (Boehringer Mannheim) and 6.25 U of reverse transcriptase (Boehringer Mannheim). The products were analyzed on a 6% polyacrylamide gel under denaturing conditions. Quantitation of primer extension products was carried out by direct radioactive measurements.

O=C1C=CC(O)C1O (centres unmarked) [DHCP, 4,5-dihydroxy-2-cyclopenten-1-one]
Primer extension: ratio of mRNA level DHCP-treated to control (gene cysK): 18.00
Primer extension: ratio of mRNA level DHCP-treated to control (gene dps): 12.00
Primer extension: ratio of mRNA level DHCP-treated to control (gene katG): 9.00
Primer extension: ratio of mRNA level DHCP-treated to control (gene ompF): 0.06
Primer extension: ratio of mRNA level DHCP-treated to control (gene osmY): 15.00
Primer extension: ratio of mRNA level DHCP-treated to control (gene rpoS): 4.00
Primer extension: ratio of mRNA level DHCP-treated to control (gene tehA): 5.00
Primer extension: ratio of mRNA level DHCP-treated to control (gene zipA): 5.00
